{"source": "paper PMC8616928", "about": "“Versatile selective evolutionary pressure using synthetic defect in universal metabolism” (Nature Communications, 2021)", "key": {"TADH": {"molecular_target": "T1, TADH (Thermus sp. ATN1, UniProt B2ZRE3)", "T1 construct": "full length, untagged, expressed from pUC19 in E. coli strain AL", "T1 sequence (B2ZRE3 1-347)": "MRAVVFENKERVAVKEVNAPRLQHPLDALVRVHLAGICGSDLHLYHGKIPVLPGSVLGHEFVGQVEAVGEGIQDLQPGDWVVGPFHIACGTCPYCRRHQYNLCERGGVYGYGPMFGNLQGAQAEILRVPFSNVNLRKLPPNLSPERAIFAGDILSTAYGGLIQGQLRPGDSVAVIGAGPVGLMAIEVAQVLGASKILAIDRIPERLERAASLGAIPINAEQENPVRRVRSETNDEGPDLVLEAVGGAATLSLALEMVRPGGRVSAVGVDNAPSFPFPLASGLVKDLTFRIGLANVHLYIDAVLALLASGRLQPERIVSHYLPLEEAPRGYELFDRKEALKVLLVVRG", "test": "anaerobic growth rescue of E. coli AL and 1H-NMR of broth", "type": "cell-based", "conditions": "whole cells, NADH regenerated by glycolysis"}, "CBADH": {"molecular_target": "T2, CBADH (Clostridium beijerinckii, UniProt P25984)", "T2 construct": "gene adh", "T2 sequence (P25984 1-351)": "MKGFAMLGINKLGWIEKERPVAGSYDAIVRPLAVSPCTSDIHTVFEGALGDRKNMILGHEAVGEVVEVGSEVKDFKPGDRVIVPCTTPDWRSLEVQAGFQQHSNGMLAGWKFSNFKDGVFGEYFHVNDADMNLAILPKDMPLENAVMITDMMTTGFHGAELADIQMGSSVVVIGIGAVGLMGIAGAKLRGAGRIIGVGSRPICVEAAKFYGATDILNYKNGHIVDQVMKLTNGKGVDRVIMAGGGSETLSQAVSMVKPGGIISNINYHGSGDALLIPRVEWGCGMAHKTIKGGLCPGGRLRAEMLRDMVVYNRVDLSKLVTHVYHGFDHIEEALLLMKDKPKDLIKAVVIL", "test": "NAD(P)H absorbance, initial rates", "type": "biochemical", "conditions": "NADP+, pH 8.8, 37 °C"}, "BDHA": {"molecular_target": "T3, BDHA (Bacillus subtilis, UniProt O34788)", "T3 construct": "full length, untagged, expressed from pUC19 in E. coli strain AL", "T3 sequence (O34788 1-346)": "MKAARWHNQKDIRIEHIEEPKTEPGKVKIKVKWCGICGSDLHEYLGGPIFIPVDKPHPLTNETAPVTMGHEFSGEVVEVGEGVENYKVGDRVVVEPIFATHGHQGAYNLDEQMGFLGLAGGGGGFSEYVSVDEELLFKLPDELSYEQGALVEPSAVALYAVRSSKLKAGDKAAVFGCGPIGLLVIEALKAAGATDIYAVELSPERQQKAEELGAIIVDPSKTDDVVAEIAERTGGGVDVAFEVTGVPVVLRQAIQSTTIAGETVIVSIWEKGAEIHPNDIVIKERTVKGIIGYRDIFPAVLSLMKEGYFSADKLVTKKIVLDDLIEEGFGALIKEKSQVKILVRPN", "test": "anaerobic growth rescue of E. coli AL and 1H-NMR of broth", "type": "cell-based", "conditions": "whole cells; endogenous acetoin reductase background"}, "BUDC": {"molecular_target": "T4, BUDC (Klebsiella pneumoniae, UniProt Q48436)", "T4 construct": "full length, untagged, expressed from pUC19 in E. coli strain AL", "test": "anaerobic growth rescue of E. coli AL and 1H-NMR of broth", "type": "cell-based", "conditions": "whole cells; endogenous acetoin reductase background"}, "MsIRED [1]": {"molecular_target": "T5, MsIRED (Myxococcus stipitatus, UniProt L7U9F5, N32D/R33V/T34R/K37R)", "T5 construct": "gene MYSTI_01767", "test": "NADH absorbance, initial rates, Michaelis-Menten with substrate inhibition", "type": "biochemical", "conditions": "NADH saturating, pH 7.4, 37 °C; substrate inhibition constant"}, "MsIRED [2]": {"molecular_target": "T6, MsIRED (Myxococcus stipitatus, UniProt L7U9F5, N32E/R33Y/T34E/K37R/L67I/T71V)", "T6 construct": "gene MYSTI_01767", "test": "NADH absorbance, initial rates, Michaelis-Menten with substrate inhibition", "type": "biochemical", "conditions": "NADH saturating, pH 7.4, 37 °C; substrate inhibition constant"}, "EntNfsB [3]": {"molecular_target": "T7, EntNfsB (Enterobacter cloacae, UniProt Q01234)", "T7 construct": "gene nfsB; full length, C-terminal His6 (pUC19), E. coli BL21(DE3), FMN holoprotein", "T7 sequence (Q01234 1-217)": "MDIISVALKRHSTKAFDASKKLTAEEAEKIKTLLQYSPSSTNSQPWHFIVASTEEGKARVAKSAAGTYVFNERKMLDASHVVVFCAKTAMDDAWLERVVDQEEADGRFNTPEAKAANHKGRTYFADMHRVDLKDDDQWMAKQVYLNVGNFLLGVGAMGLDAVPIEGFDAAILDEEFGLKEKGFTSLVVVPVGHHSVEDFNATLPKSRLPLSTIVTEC", "test": "NADH absorbance, initial rates, anaerobic", "type": "biochemical", "conditions": "pH 7.4, 37 °C, activity too low for kinetic parameters"}, "EntNfsB [4]": {"molecular_target": "T8, EntNfsB (Enterobacter cloacae, UniProt Q01234, T41L/Y68L/F124L)", "T8 construct": "gene nfsB", "conditions": "pH 7.4, 37 °C, saturating cofactor, anaerobic"}, "[5]": {"substrate": "O=C(O)c1ccc([N+](=O)[O-])cc1", "test": "NADH absorbance, initial rates, anaerobic, Michaelis-Menten fit", "type": "biochemical, Enterobacter cloacae", "conditions": "pH 7.4, 37 °C, saturating cofactor"}, "[6]": {"substrate": "CC1=NCCC1", "test": "NADH absorbance, initial rates, Michaelis-Menten with substrate inhibition", "type": "biochemical, Myxococcus stipitatus", "conditions": "NADH saturating, pH 7.4, 37 °C"}}, "data": [{"molecule": "O=C1CCCCC1", "note": "[cyclohexanone]", "values": [{"measurement": "anaerobic growth rescue of E. coli AL and 1H-NMR of broth", "setting": "TADH", "value": "acetoin for BDHA and BUDC, and cyclohexanone or 3-methylcyclohexanone for TADH"}]}, {"molecule": "CC(C)O", "note": "[isopropanol]", "values": [{"measurement": "NAD(P)H absorbance, initial rates", "setting": "CBADH", "value": "Unlike the parent enzyme CBADHWT, purified CBADHS was unable to oxidize isopropanol using oxidized NADP"}]}, {"molecule": "CC(=O)C(C)O", "note": "(stereo not drawn) [acetoin]", "values": [{"measurement": "anaerobic growth rescue of E. coli AL and 1H-NMR of broth", "setting": "BDHA", "value": "acetoin for BDHA and BUDC, and cyclohexanone or 3-methylcyclohexanone for TADH"}, {"measurement": "anaerobic growth rescue of E. coli AL and 1H-NMR of broth", "setting": "BUDC", "value": "acetoin for BDHA and BUDC, and cyclohexanone or 3-methylcyclohexanone for TADH"}]}, {"molecule": "CC1CCCC(=O)C1", "note": "(stereo not drawn) [3-methylcyclohexanone]", "values": [{"measurement": "anaerobic growth rescue of E. coli AL and 1H-NMR of broth", "setting": "TADH", "value": "acetoin for BDHA and BUDC, and cyclohexanone or 3-methylcyclohexanone for TADH"}]}, {"molecule": "CC1=NCCC1", "note": "[2-methyl-1-pyrroline]", "values": [{"measurement": "Ki", "setting": "MsIRED [1]", "value": 11.42, "unit": "mM"}, {"measurement": "Ki", "setting": "MsIRED [2]", "value": 4.94, "unit": "mM"}]}, {"molecule": "O=[N+]([O-])c1ccc(CO)cc1", "note": "[4-nitrobenzyl alcohol]", "values": [{"measurement": "NADH absorbance, initial rates, anaerobic", "setting": "EntNfsB [3]", "value": "it was able to reduce 4-NBA and 4-NBALC but not 2-NBA"}, {"measurement": "Km", "setting": "EntNfsB [4]", "value": 1110, "unit": "µM"}]}, {"molecule": "EntNfsB (Enterobacter cloacae) (protein, full length, C-terminal His6 (pUC19), E. coli BL21(DE3), FMN holoprotein) MDIISVALKRHSTKAFDASKKLTAEEAEKIKTLLQYSPSSTNSQPWHFIVASTEEGKARVAKSAAGTYVFNERKMLDASHVVVFCAKTAMDDAWLERVVDQEEADGRFNTPEAKAANHKGRTYFADMHRVDLKDDDQWMAKQVYLNVGNFLLGVGAMGLDAVPIEGFDAAILDEEFGLKEKGFTSLVVVPVGHHSVEDFNATLPKSRLPLSTIVTEC", "values": [{"measurement": "Km", "setting": "[5]", "value": "141 ± 22", "unit": "µM"}, {"measurement": "kcat", "setting": "[5]", "value": "0.762 ± 0.0383", "unit": "s⁻¹"}]}, {"molecule": "MsIRED (Myxococcus stipitatus DSM 14675; K37R/N32D/R33V/T34R) (protein) MKPTLTVIGAGRMGSALIKAFLQSGYTTTVWDVRKARSEPLAKLGAHLADTVRDAVKRSDIIVVNVLDYDTSDQLLRQDEVTRELRGKLLVQLTSGSPALAREQETWARQHGIDYLDGAIMATPDFIGQAECALLYSGSAALFEKHRAVLNVLGGATSHVGEDVGHASALDSALLFQMWGTLFGTLQALAISRAEGIPLEKTTAFIKLTEPVTQGAVADVLTRVQQNRLTADAQTLASLEAHNVAFQHLLALCEERNIHRGVADAMYSVIREAVKAGHGKDDFAILTRFLK", "values": [{"measurement": "Km", "setting": "[6]", "value": 19570, "unit": "µM"}, {"measurement": "kcat", "setting": "[6]", "value": 1.3, "unit": "s⁻¹"}]}, {"molecule": "MsIRED (Myxococcus stipitatus DSM 14675; K37R/L67I/N32E/R33Y/T34E/T71V) (protein) MKPTLTVIGAGRMGSALIKAFLQSGYTTTVWEYEKARSEPLAKLGAHLADTVRDAVKRSDIIVVNVIDYDVSDQLLRQDEVTRELRGKLLVQLTSGSPALAREQETWARQHGIDYLDGAIMATPDFIGQAECALLYSGSAALFEKHRAVLNVLGGATSHVGEDVGHASALDSALLFQMWGTLFGTLQALAISRAEGIPLEKTTAFIKLTEPVTQGAVADVLTRVQQNRLTADAQTLASLEAHNVAFQHLLALCEERNIHRGVADAMYSVIREAVKAGHGKDDFAILTRFLK", "values": [{"measurement": "Km", "setting": "[6]", "value": 34060, "unit": "µM"}, {"measurement": "kcat", "setting": "[6]", "value": 2.6862, "unit": "s⁻¹"}]}]}
